pIC50: −log10 of the molar value.
Columns and labels:
Huh-7 xenografts = experiment: CIVO intratumoral microinjection, Huh-7 xenografts; assay type: in vivo; conditions: Huh-7 liver cancer model
Text: FIG. 6 depicts the CIVO injection array.
CC3 is not elevated over background levels at any injection site.

NCI-H358 cells = experiment: 2D culture dose response; assay type: cell-based; conditions: Homo sapiens
[1] = system: Venetoclax Sensitive and Resistant Cell Lines; experiment: Voruciclib + venetoclax synergy in venetoclax sensitive and resistant cell lines; assay type: cell-based
Text: FIG. 4A: Ven Sensitive; FIG. 4B: Ven Resistant.

Compound: CN1CC[C@@H](c2c(O)cc(O)c3c(=O)cc(-c4ccc(C(F)(F)F)cc4Cl)oc23)[C@@H]1CO [Voruciclib, (+)-trans-2-(2-Chloro-4-trifluoromethylphenyl)-5,7-dihydroxy-8-(2-hydroxymethyl-1-methylpyrrolidin-3-yl)-chromen-4-one]
- apoptotic cells (CC3) (Huh-7 xenografts): do not result in an increase in apoptotic cells
- pIC50 (NCI-H358 cells): 6.22
- synergy with Venetoclax [1]: Synergizes with Venetoclax

— patent US20240016781A1, “TREATMENT OF KRAS MUTANT CANCERS” (MEI Pharma, Inc., priority 2020, published 2024)
